Activity calls are given as the source filed them. No stated cut-off is given here; in the data, actives have a measured IC50 and inactives only a lower limit.
Target: Envelope glycoprotein gp160 (Human immunodeficiency virus 1, UniProt Q6QLK5)
Assay: inhibitors of HIV fusion peptide binding, primary screen, biochemical, uHTS, fluorescence dequenching (AID 1986)

Envelope glycoprotein gp160, sequence (Q6QLK5 whole entry, the tested form may be a part): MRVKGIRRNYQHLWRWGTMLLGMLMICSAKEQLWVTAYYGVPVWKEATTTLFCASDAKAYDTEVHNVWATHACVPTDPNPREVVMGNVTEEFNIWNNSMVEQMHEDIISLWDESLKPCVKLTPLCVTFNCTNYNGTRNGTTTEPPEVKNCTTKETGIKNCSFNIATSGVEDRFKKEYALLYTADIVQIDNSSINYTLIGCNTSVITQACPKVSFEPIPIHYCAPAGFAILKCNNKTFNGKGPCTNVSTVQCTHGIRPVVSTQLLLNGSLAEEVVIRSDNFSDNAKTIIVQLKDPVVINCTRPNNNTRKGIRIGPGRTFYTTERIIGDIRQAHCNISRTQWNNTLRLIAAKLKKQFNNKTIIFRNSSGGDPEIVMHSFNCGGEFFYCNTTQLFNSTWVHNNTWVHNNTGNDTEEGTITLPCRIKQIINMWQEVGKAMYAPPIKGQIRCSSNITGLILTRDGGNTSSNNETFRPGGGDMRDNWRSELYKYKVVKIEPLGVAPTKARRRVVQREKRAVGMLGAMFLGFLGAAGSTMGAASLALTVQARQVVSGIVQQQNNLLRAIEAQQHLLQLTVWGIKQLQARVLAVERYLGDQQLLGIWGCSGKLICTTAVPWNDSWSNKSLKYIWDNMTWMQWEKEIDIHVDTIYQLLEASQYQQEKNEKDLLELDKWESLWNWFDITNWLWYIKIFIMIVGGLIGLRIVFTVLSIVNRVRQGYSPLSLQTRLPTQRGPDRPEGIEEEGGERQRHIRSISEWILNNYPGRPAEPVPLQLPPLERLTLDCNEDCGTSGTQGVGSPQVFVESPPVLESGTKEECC

**Q.** O=C(Nc1ccccc1Cc1ccccc1)c1ccccc1NS(=O)(=O)c1ccc(Cl)s1 was tested. Which IC50 did it give?
**A.** 17 µM (active)

**Q.** For O=C(O)c1ccccc1N=Nc1c(O)[nH]c2ccc([N+](=O)[O-])cc12, which IC50 is on record?
**A.** 23.3 µM (active)

**Q.** For CCS(=O)(=O)C1=NN2C(=N)/C(=C\c3ccc(OS(=O)(=O)c4ccccc4)c(OC)c3)C(=O)N=C2S1, which IC50 is on record?
**A.** 17.8 µM (active)

**Q.** For COc1ccc(-c2nn(-c3ccccc3)cc2/C=C2/SC(=S)N(CCCC(=O)O)C2=O)c(C)c1, which IC50 is on record?
**A.** 20.2 µM (active)

**Q.** Which IC50 does the source give for CCc1ccc(NC2=NC(=O)/C(=C/c3cc(Br)c(OCC(=O)O)c(OC)c3)S2)cc1 here?
**A.** 14.6 µM (active)
